From patent US11214803B2, “Modulators of YAP1 expression” (Ionis Pharmaceuticals, Inc., priority 2019, dated 2022)
Strand notation (5' to 3'): a small letter for the sugar, then the base; units joined by * are phosphorothioate-linked, units joined directly phosphodiester-linked; [ ] holds rarer units or linkages, { } end groups; capitals alone tell only the bases. k = constrained ethyl (cEt); [5mC] = 5-methylcytosine; d = 2'-deoxy (DNA)

Experiments:
Yap1 mRNA [1] = test: Dose-dependent inhibition of human Yap1 in A-431 cells (Example 7, 10,000 cells per well, RTS36584); format: cell-based; settings: free uptake; for Yap1 mRNA, % UTC: A-431 cells 10,000 cells per well, 48 hours
Procedure, shortened: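 Yap1 mRNA was expressed as percent of untreated control after normalization to total RNA (RIBOGREEN), and IC50 was derived by log/linear linear regression. The read-out used primer-probe set RTS36584 roughly 48 hours after free-uptake dosing of oligonucleotides into A-431 cells (10,000 cells/well).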

[2] = Tolerability in Balb/c mice, plasma chemistry markers (Example 12); format: in vivo; settings: 50 mg/kg subcutaneously twice a week for four weeks
Procedure: Balb/c mice were treated with modified oligonucleotides selected from studies described above and evaluated for changes in the levels of various plasma chemistry markers.
(§1) Groups of male Balb/c mice at 6-7 weeks of age (obtained from Taconic) were injected subcutaneously twice a week for four weeks (for a total of 8 treatments) with 50 mg/kg of modified oligonucleotides. One group of male Balb/c mice was injected with PBS. Mice were euthanized on day 26 post start of treatment (24 hours following the final administration).

[3] = Tolerability in Balb/c mice, body and organ weights (Example 12); format: in vivo; settings: male Balb/c mice, 50 mg/kg s.c. twice a week for four weeks (8 treatments), end of study (day 26)
Procedure: as §1
Body weights of Balb/c mice were measured at the end of the study, and the average body weight for each group is presented in the table below. Modified oligonucleotides that caused any changes in organ weights outside the expected range for modified oligonucleotides were excluded from further studies.

Yap1 mRNA [4] = test: Antisense inhibition of human Yap1 in A-431 cells by cEt gapmers, single dose (Example 1, RTS4814); format: cell-based
Procedure, shortened: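 Free uptake of 2,000 nM 3-10-3 cEt gapmer (16-mer, full phosphorothioate, 5-methylcytosines) in A-431 cells for ~48 h. Yap1 mRNA quantified by qRT-PCR with set RTS4814, normalized to total RNA (RiboGreen), and expressed as % of untreated control; asterisked values target the amplicon region.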

Yap1 mRNA [5] = test: Antisense inhibition of human Yap1 in A-431 cells by cEt gapmers, single dose (Example 3, RTS36584); format: cell-based; settings: A-431 cells, 5,000 cells per well
Procedure, shortened: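 A-431 cells (5,000/well) took up the 3-10-3 cEt gapmers by free uptake at 2,000 nM for about 48 h. Yap1 mRNA was measured by RT-qPCR with primer probe set RTS36584, normalized to RiboGreen total RNA, and given as % of untreated control.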

Yap1 mRNA [6] = test: Antisense inhibition of human Yap1 in SNU-449 cells by modified oligonucleotides, single dose (Example 5, RTS36584); format: cell-based
Procedure, shortened: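 SNU-449 cells were given 2,000 nM oligonucleotide by free uptake for about 48 h. Yap1 mRNA was then measured by RT-qPCR with primer probe set RTS36584, normalized to total RNA by RIBOGREEN and expressed as percent of untreated control.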

[7] = A-431 cells, 5,000 cells per well, free uptake, 2,000 nM modified oligonucleotide, approx. 48 hours, RTS4814, normalized to RIBOGREEN, Table 3
[8] = Table 8, free uptake, 2,000 nM, approximately 48 hours, RTS36584, normalized to RIBOGREEN, Yap1 mRNA relative to untreated control cells
[9] = Table 2, A-431 cells, free uptake, 2,000 nM, approximately 48 hours, RTS4814, Yap1 mRNA relative to untreated control cells
[10] = Table 1, A-431 cells, free uptake, 2,000 nM, approximately 48 hours, RTS4814, Yap1 mRNA relative to untreated control cells

## 958729 (kG*kT*k[5mC]*dA*dG*dT*dT*dA*dT*d[5mC]*d[5mC]*dT*dA*kT*k[5mC]*kT; antisense) [compound 958729]
Yap1 mRNA [1]; Table 61, 15.6 nM
  Yap1 mRNA, % UTC: 73 % UTC
Yap1 mRNA [1]; Table 61, 62.5 nM
  Yap1 mRNA, % UTC: 44 % UTC
Yap1 mRNA [1]; Table 61, 4000.00 nM
  Yap1 mRNA, % UTC: 4 % UTC
Yap1 mRNA [1]; Table 61, A-431 cells 10,000 cells per well
  IC50: 50 nM
[2]
  ALT: 4368 U/L
  AST: 4503 U/L
  BUN: 30 mg/dL
  TBIL: 2.15 mg/dL
[3]
  Kidney weight: 0.24 g
  Liver weight: 1.32 g
  Spleen weight: 0.05 g
  body weight: 15 g

## 715483 (antisense k[5mC]*kT*k[5mC]*dT*dT*dT*dG*dG*dA*dA*dA*d[5mC]*d[5mC]*kA*kT*kT) [Compound 715483]
Yap1 mRNA [4]; [7]
  YAP1 (% UTC): 15 % UTC
Yap1 mRNA [5]; [8]
  YAP1 (% UTC): 2 % UTC
Yap1 mRNA [5]; Table 9, free uptake, 2,000 nM, approximately 48 hours, RTS36584, normalized to RIBOGREEN, Yap1 mRNA relative to untreated control cells
  YAP1 (% UTC): 1 % UTC
Yap1 mRNA [5]; Table 10, free uptake, 2,000 nM oligonucleotide, approx. 48 hours, primer probe set RTS36584, Yap1 mRNA normalized to RIBOGREEN, percent of untreated control
  YAP1 (% UTC): 2 % UTC
Yap1 mRNA [5]; Table 11, free uptake, 2,000 nM oligonucleotide, approx. 48 hours, primer probe set RTS36584, Yap1 mRNA normalized to RIBOGREEN, percent of untreated control
  YAP1 (% UTC): 1 % UTC
Yap1 mRNA [5]; Table 12, free uptake, 2,000 nM modified oligonucleotide, approx. 48 hours, RTS36584, normalized to RIBOGREEN, Yap1 mRNA relative to untreated control cells
  YAP1 (% UTC): 1 % UTC
Yap1 mRNA [5]; Table 13, free uptake, 2,000 nM modified oligonucleotide, approx. 48 hours, RTS36584, normalized to RIBOGREEN, Yap1 mRNA relative to untreated control cells
  YAP1 (% UTC): 1 % UTC

## 715491 (antisense kA*kA*k[5mC]*d[5mC]*dA*dA*d[5mC]*dT*dA*dT*dT*dA*d[5mC]*kT*kT*k[5mC]) [Compound 715491]
Yap1 mRNA [4]; [9]
  YAP1 (% UTC): 71 % UTC
Yap1 mRNA [5]; [8]
  YAP1 (% UTC): 8 % UTC

## 715487 (antisense kA*kT*kT*dA*d[5mC]*dT*dT*d[5mC]*dA*dT*dA*dG*d[5mC]*kT*kT*kA) [Compound 715487]
Yap1 mRNA [4]; [10]
  YAP1 (% UTC): 22 % UTC
Yap1 mRNA [6]; Table 39, SNU-449 cells, 10,000 cells per well, free uptake, 2,000 nM oligonucleotide, approx. 48 hours, RTS36584, normalized to RIBOGREEN, Yap1 mRNA relative to untreated control
  YAP1 (% UTC): 12 % UTC
Yap1 mRNA [6]; Table 40 (separate experiment), SNU-449 cells, 10,000 cells per well, free uptake, 2,000 nM oligonucleotide, approx. 48 hours, RTS36584, normalized to RIBOGREEN, Yap1 mRNA relative to untreated control
  YAP1 (% UTC): 28 % UTC
Yap1 mRNA [6]; Table 41, SNU-449 cells, 10,000 cells per well, free uptake, 2,000 nM modified oligonucleotide, approximately 48 hours, RTS36584, normalized to RIBOGREEN, Yap1 mRNA relative to untreated control cells
  YAP1 (% UTC): 28 % UTC
Yap1 mRNA [6]; Table 42 (separate experiment), SNU-449 cells, 10,000 cells per well, free uptake, 2,000 nM modified oligonucleotide, approximately 48 hours, RTS36584, normalized to RIBOGREEN, Yap1 mRNA relative to untreated control cells
  YAP1 (% UTC): 29 % UTC
Yap1 mRNA [6]; Table 43 experiment, SNU-449 cells, 10,000 cells per well, free uptake, 2,000 nM, approximately 48 hours, RTS36584, Yap1 mRNA normalized to RIBOGREEN, relative to untreated control cells
  YAP1 (% UTC): 25 % UTC
Yap1 mRNA [6]; Table 44 experiment, SNU-449 cells, 10,000 cells per well, free uptake, 2,000 nM, approximately 48 hours, RTS36584, Yap1 mRNA normalized to RIBOGREEN, relative to untreated control cells
  YAP1 (% UTC): 18 % UTC
Yap1 mRNA [6]; Table 45, Yap1 mRNA as percent of untreated control, SNU-449 cells, single dose
  YAP1 (% UTC): 28 % UTC
Yap1 mRNA [6]; Table 46, Yap1 mRNA as percent of untreated control, SNU-449 cells, single dose
  YAP1 (% UT): 25 % UT
Yap1 mRNA [6]; Table 48, Yap1 mRNA level relative to untreated control, modified oligonucleotides targeting SEQ ID NO.: 1 and 2
  YAP1 (% UT): 34 % UT
Yap1 mRNA [6]; Table 49, Yap1 mRNA level relative to untreated control, modified oligonucleotides targeting SEQ ID NO.: 1 and 2
  YAP1 (% UT): 30 % UT
Yap1 mRNA [6]; Table 50, Yap1 mRNA remaining as percent of untreated control (UT), SNU-449 cells, single dose
  YAP1 (% UT): 31 % UT
Yap1 mRNA [6]; Table 51, Yap1 mRNA remaining as percent of untreated control (UT), SNU-449 cells, single dose
  YAP1 (% UT): 24 % UT
Yap1 mRNA [6]; Table 52, Yap1 mRNA, modified oligonucleotides targeting SEQ ID NO: 1 and 2
  YAP1 (% UT): 29 % UT
Yap1 mRNA [6]; Yap1 mRNA, percent of untreated control, modified oligonucleotides targeting SEQ ID NO: 1 and 2, Table 47
  YAP1 (% UT): 39 % UT

## 715621 (antisense kT*kA*kA*dA*dA*dA*dA*dT*dA*dA*dG*dA*d[5mC]*kG*kG*kA) [Compound 715621]
Yap1 mRNA [4]; [7]
  YAP1 (% UTC): 106 % UTC

## 715467 (antisense k[5mC]*kA*kT*d[5mC]*dT*d[5mC]*d[5mC]*dT*dT*d[5mC]*d[5mC]*dA*dG*kT*kG*kT) [Compound 715467]
Yap1 mRNA [4]; [9]
  YAP1 (% UTC): 77 % UTC

## 715427 (k[5mC]*k[5mC]*kA*dT*d[5mC]*d[5mC]*dA*dT*d[5mC]*dA*dG*dG*dA*kA*kG*kA; antisense) [Compound 715427]
Yap1 mRNA [4]; [10]
  YAP1 (% UTC): 90 % UTC

## 715609 (antisense kT*kG*kT*dG*dT*dA*dG*dG*d[5mC]*dT*dG*dA*d[5mC]*kT*kT*kA) [Compound 715609]
Yap1 mRNA [4]; [7]
  YAP1 (% UTC): 56 % UTC

## 715482 (antisense k[5mC]*kT*kT*dT*dG*dG*dA*dA*dA*d[5mC]*d[5mC]*dA*dT*kT*kA*kT) [Compound 715482]
Yap1 mRNA [4]; [9]
  YAP1 (% UTC): 58 % UTC

## 715469 (antisense kT*kA*kG*d[5mC]*dT*dT*dG*dG*dT*dG*dG*d[5mC]*dA*kG*k[5mC]*k[5mC]) [Compound 715469]
Yap1 mRNA [4]; [10]
  YAP1 (% UTC): 94 % UTC

## 715596 (antisense kG*kT*kT*d[5mC]*dA*dT*dG*dG*d[5mC]*dT*dG*dA*dA*kA*kT*kG) [Compound 715596]
Yap1 mRNA [4]; [9]
  YAP1 (% UTC): 104 % UTC

## 715576 (kA*kA*k[5mC]*d[5mC]*dT*dT*dT*dA*d[5mC]*d[5mC]*dA*dA*dA*kA*k[5mC]*kG; antisense) [Compound 715576]
Yap1 mRNA [4]; [7]
  YAP1 (% UTC): 80 % UTC

## 715574 (kT*kA*k[5mC]*d[5mC]*dA*dA*dA*dA*d[5mC]*dG*dA*dG*dG*kG*kT*k[5mC]; antisense) [Compound 715574]
Yap1 mRNA [4]; [10]
  YAP1 (% UTC): 118 % UTC

## 715414 (kA*kA*k[5mC]*dA*dT*dG*d[5mC]*dT*dG*dT*dG*dG*dA*kG*kT*k[5mC]; antisense) [Compound 715414]
Yap1 mRNA [4]; [7]
  YAP1 (% UTC): 31 % UTC

## 715409 (k[5mC]*kA*kG*dT*dA*d[5mC]*dT*dG*dG*d[5mC]*d[5mC]*dT*dG*kT*k[5mC]*kG; antisense) [Compound 715409]
Yap1 mRNA [4]; [10]
  YAP1 (% UTC): 76 % UTC

## 715401 (kG*kG*kT*d[5mC]*dT*d[5mC]*d[5mC]*dG*dA*dG*dT*d[5mC]*d[5mC]*k[5mC]*k[5mC]*kG; antisense) [Compound 715401]
Yap1 mRNA [4]; [9]
  YAP1 (% UTC): 84 % UTC

## 715506 (antisense kA*kA*kA*dT*dT*dG*dG*dT*dT*dT*dA*dT*dT*kG*kT*kA) [Compound 715506]
Yap1 mRNA [4]; [9]
  YAP1 (% UTC): 112 % UTC
